SMILES strings stand for the structures.

Test [1] addresses T1, serotoninergic 5-HT1A receptor (Homo sapiens, UniProt P08908).
T1 sequence (P08908 1-422): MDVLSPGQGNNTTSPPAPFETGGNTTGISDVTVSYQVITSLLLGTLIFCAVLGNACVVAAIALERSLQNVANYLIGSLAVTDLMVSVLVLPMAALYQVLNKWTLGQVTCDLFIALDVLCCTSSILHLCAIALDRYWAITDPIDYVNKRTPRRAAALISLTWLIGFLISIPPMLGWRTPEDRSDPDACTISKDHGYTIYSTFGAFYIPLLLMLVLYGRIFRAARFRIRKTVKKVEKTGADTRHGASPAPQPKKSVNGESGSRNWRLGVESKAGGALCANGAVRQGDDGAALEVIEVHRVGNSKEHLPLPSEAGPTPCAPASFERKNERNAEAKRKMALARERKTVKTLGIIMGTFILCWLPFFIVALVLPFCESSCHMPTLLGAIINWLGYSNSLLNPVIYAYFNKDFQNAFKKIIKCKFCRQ
The test is described as follows: Binding assay 5-HT1A (h), [3H]8-OH-DPAT, HEK-293 cells. The settings on record: read-out: 5-HT1A. Further details: expressed in transfected cells; host or cells: HEK-293 cells. In outline: (§1)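 Total binding and binding under an excess of unlabelled competitor were both measured, the difference giving specific binding. Counts came from scintillation detection, and compound concentration was 1×10^−6 M.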

The target of test [2] is serotoninergic 5-HT2A receptor (Homo sapiens, UniProt P28223). The test is described as follows: Binding assay 5-HT2A (h), [3H]ketanserin, HEK-293 cells. Further details: expressed in transfected cells; host or cells: HEK-293 cells. Particulars: read-out: 5-HT2A. In short, it runs like this:
as §1

The target in test [3] is serotoninergic 5-HT7 receptor (Homo sapiens, UniProt P34969). As to the kind of experiment: Binding assay 5-HT7 (h), [3H]LSD, CHO cells. The settings on record: read-out: 5-HT7. Details: expressed in transfected cells; host or cells: CHO cells. In short, it runs like this:
as §1

The target of test [4] is T2, serotonine transporter (SERT) receptor (Homo sapiens, UniProt P31645).
T2 construct: expressed in transfected cells; host or cells: CHO cells
T2 sequence (P31645 whole entry): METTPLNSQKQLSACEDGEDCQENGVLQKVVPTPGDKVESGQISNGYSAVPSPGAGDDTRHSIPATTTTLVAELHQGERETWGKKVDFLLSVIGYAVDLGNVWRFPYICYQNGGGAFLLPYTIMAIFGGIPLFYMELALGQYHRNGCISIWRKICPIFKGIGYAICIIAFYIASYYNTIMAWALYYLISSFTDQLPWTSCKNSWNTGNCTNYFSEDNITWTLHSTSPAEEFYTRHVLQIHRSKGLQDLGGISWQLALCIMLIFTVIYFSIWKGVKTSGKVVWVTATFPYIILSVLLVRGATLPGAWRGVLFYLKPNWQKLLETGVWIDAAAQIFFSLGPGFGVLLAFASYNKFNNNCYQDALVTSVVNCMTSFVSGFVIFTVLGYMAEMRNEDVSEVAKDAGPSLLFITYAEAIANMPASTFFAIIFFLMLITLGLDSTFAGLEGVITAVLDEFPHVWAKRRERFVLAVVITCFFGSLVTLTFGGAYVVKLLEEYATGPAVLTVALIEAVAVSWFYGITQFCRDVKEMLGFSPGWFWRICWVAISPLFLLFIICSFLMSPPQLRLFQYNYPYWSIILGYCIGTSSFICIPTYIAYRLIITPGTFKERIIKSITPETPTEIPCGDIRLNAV
As to the kind of experiment: Binding assay SERT (h), [3H]imipramine, CHO cells. Particulars: read-out: SERT [%]. In short, it runs like this: as §1

The target in a further test is dopaminergic D3 receptor (Homo sapiens, UniProt P35462). The test is described as follows: Binding assay D3 (h), [3H]methyl-spiperone, CHO cells. Further details: expressed in transfected cells; host or cells: CHO cells. Particulars: read-out: D3 [%]. In short, it runs like this:
as §1

The next test deals with adrenergic α1 receptor. The test is described as follows: Binding assay α1 (non-selective), [3H]prazosin, rat cerebral cortex. Particulars: percent inhibition of control specific binding; compounds tested at 1×10^−6 M. In outline:
as §1

The target of test [5] is serotoninergic 5-HT6 receptor (Homo sapiens, UniProt P50406). The test is described as follows: Binding assay 5-HT6 (h), [3H]LSD, CHO cells. The settings on record: read-out: 5-HT6. Further details: expressed in transfected cells; host or cells: CHO cells. In short, it runs like this:
as §1

A further test has as its target dopaminergic D2 receptor (Homo sapiens, UniProt P14416). The test is described as follows: Binding assay D2S (h), [3H]methyl-spiperone, HEK-293 cells. Details: expressed in transfected cells; host or cells: HEK-293 cells. Particulars: read-out: D2 [%]. In outline: as §1

Sequence of serotoninergic 5-HT7 receptor (P34969 whole entry): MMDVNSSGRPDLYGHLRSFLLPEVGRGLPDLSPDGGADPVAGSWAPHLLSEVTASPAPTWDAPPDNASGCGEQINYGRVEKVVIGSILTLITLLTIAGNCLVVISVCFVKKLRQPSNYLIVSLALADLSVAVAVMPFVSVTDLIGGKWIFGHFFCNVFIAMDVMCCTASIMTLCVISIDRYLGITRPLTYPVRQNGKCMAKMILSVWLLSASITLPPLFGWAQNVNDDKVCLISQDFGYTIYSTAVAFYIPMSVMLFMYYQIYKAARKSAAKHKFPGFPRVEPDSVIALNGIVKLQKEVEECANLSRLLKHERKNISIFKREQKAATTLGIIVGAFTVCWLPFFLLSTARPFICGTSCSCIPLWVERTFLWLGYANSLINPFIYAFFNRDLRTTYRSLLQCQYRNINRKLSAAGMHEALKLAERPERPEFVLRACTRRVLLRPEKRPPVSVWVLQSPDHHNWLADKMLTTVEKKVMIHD
Sequence of serotoninergic 5-HT2A receptor (P28223 whole entry): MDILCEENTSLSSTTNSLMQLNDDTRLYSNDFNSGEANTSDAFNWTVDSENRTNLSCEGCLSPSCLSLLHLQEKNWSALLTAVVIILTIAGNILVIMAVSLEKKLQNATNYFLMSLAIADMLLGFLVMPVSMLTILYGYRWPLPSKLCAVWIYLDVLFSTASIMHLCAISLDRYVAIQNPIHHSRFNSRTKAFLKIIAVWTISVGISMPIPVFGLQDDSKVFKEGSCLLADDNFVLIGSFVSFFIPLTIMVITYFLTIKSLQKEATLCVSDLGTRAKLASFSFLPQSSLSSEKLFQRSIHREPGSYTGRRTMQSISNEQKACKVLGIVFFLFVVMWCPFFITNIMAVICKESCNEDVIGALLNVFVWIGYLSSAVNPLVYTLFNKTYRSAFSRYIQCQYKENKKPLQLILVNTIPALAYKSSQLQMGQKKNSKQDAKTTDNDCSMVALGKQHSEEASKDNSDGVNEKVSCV
Sequence of dopaminergic D3 receptor (P35462 whole entry): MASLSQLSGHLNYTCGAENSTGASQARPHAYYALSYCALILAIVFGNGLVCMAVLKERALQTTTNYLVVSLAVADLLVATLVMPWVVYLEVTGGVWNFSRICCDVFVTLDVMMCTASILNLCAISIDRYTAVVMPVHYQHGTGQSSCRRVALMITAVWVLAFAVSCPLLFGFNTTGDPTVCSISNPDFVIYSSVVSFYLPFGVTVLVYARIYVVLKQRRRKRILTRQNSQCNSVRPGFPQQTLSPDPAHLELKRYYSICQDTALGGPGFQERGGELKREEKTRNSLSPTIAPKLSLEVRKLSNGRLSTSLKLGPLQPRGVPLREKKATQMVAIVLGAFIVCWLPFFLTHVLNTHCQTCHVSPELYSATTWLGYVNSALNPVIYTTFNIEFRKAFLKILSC
Sequence of serotoninergic 5-HT6 receptor (P50406 whole entry): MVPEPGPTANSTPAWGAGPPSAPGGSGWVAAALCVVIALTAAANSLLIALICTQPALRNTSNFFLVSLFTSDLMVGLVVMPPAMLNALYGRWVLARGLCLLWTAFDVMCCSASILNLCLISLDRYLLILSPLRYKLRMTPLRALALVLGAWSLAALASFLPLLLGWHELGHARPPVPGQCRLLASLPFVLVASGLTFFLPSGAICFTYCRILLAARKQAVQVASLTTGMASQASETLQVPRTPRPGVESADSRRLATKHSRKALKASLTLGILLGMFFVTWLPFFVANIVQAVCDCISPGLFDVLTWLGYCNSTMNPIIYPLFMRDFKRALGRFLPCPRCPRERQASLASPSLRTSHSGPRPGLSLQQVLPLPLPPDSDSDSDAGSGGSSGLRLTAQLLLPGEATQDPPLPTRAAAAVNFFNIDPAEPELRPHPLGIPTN
Sequence of dopaminergic D2 receptor (P14416 1-414 isoform P14416-2): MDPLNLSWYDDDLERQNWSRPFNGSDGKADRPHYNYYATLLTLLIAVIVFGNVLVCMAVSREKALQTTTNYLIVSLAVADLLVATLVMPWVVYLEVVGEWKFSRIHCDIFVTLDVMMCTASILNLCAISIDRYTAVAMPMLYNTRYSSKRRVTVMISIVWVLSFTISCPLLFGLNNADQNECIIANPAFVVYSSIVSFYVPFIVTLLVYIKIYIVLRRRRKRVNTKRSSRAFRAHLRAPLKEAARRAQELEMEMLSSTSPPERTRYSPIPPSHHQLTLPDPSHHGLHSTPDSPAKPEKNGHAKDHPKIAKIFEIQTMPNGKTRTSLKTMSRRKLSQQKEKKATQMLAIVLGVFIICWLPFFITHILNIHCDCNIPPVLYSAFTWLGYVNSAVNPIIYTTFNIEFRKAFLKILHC

In the case of `O=S(=O)(NCCCN1CCC(c2noc3cc(F)ccc23)CC1)c1ccc2c(c1)CCO2` [Compound 350, N-[3-[4-(6-Fluoro-1,2-benzoxazol-3-yl)piperidin-1-yl]propyl]-2,3-dihydrobenzofuran-5-sulphonamide], the inhibition at 1 µM in test [1] was 57%; in test [2] it was 95%; in test [3] it was 87%; in test [4] it was -5%; at dopaminergic D3 receptor, 95%; in test [5], 96%. Further, the inhibition at 1 µM on dopaminergic D2 receptor is 102%. Besides, the “α1 [%]” value in the test with adrenergic α1 receptor amounted to 102%.
Take `O=S(=O)(NCCCN1CCC(c2noc3cc(F)ccc23)CC1)c1cccc2scnc12` [Compound 351, N-[3-[4-(6-Fluoro-1,2-benzoxazol-3-yl)piperidin-1-yl]propyl]-1,3-benzothiazole-4-sulphonamide]: the inhibition at 1 µM turned out to be 71% in test [1]; 103% in test [2]; 94% in test [3]; 31% in test [4]; 103% at dopaminergic D3 receptor; 89% in test [5]. At dopaminergic D2 receptor, the inhibition at 1 µM was determined as 101%. For the same molecule, in the test on adrenergic α1 receptor, the “α1 [%]” value was 97%.
With `O=c1[nH]c2ccc(S(=O)(=O)NCCCN3CCC(c4noc5cc(F)ccc45)CC3)cc2o1` [Compound 353, N-[3-[4-(6-Fluoro-1,2-benzoxazol-3-yl)piperidin-1-yl]propyl]-2-oxo-3H-1,3-benzoxazole-6-sulphonamide], the inhibition at 1 µM was 48% in test [1]; 101% in test [2]; 83% in test [3]; -1% in test [4]; 97% on dopaminergic D3 receptor; 58% in test [5]. The inhibition at 1 µM on dopaminergic D2 receptor worked out at 91%. Moreover, the “α1 [%]” value in the test with adrenergic α1 receptor was 103%.
As to `O=S(=O)(NCCCN1CCC(c2noc3cc(F)ccc23)CC1)c1ccc2c(c1)OCO2` [Compound 354, N-[3-[4-(6-Fluoro-1,2-benzoxazol-3-yl)piperidin-1-yl]propyl]-1,3-benzodioxole-5-sulphonamide], the inhibition at 1 µM in test [1] worked out at 59%; in test [2], 86%; in test [3] it was 96%; in test [4] it was 6%; on dopaminergic D3 receptor, 88%; in test [5], 86%. Moreover, on dopaminergic D2 receptor, the inhibition at 1 µM is 83%. For the same molecule, in the test on adrenergic α1 receptor, the “α1 [%]” value came to 103%.
In the case of `O=S(=O)(NCCCN1CCC(c2noc3cc(F)ccc23)CC1)c1ccc2c(c1)OCCO2` [Compound 355, N-[3-[4-(6-Fluoro-1,2-benzoxazol-3-yl)piperidin-1-yl]propyl]-2,3-dihydro-1,4-benzodioxine-6-sulphonamide], the inhibition at 1 µM in test [1] came out at 60%; in test [2] it was 103%; in test [3], 84%; in test [4], 45%; on dopaminergic D3 receptor it was 97%; in test [5], 75%. At dopaminergic D2 receptor, the inhibition at 1 µM is 99%. For the same molecule, in the test with adrenergic α1 receptor, the “α1 [%]” value is on record as 105%.
As to `O=S(=O)(NCCCCN1CCN(c2cccc3[nH]ccc23)CC1)c1cccc(C(F)(F)F)c1` [Compound 361, N-[4-[4-(1H-Indol-4-yl)piperazin-1-yl]butyl]-3-(trifluoromethyl)benzenesulphonamide], the inhibition at 1 µM turned out to be 95% in test [1]; 49% in test [2]; 86% in test [3]; 6% in test [4]; 98% on dopaminergic D3 receptor; 70% in test [5]. At dopaminergic D2 receptor, the inhibition at 1 µM stood at 99%. In addition, in the test on adrenergic α1 receptor, the “α1 [%]” value is 98%.
Take `N#Cc1cccc(S(=O)(=O)NCCCCN2CCN(c3cccc4[nH]ccc34)CC2)c1` [Compound 362, 3-Cyano-N-[4-[4-(1H-indol-4-yl)piperazin-1-yl]butyl]benzenesulphonamide]: the inhibition at 1 µM in test [1] is 91%; in test [2], 41%; in test [3] it was 88%; in test [4], 37%; at dopaminergic D3 receptor it was 102%; in test [5], 69%. For the same molecule, the inhibition at 1 µM at dopaminergic D2 receptor came to 101%. The “α1 [%]” value in the test on adrenergic α1 receptor turned out to be 96%.
As for `Cc1c(S(=O)(=O)NCCCCN2CCN(c3cccc4[nH]ccc34)CC2)sc2ccc(F)cc12` [Compound 364, 5-Fluoro-N-[4-[4-(1H-indol-4-yl)piperazin-1-yl]butyl]-3-methylbenzothiophene-2-sulphonamide], the inhibition at 1 µM came to 92% in test [1]; 89% in test [2]; 91% in test [3]; 35% in test [4]; 100% on dopaminergic D3 receptor; 80% in test [5]. The inhibition at 1 µM at dopaminergic D2 receptor came out at 100%. The “α1 [%]” value in the test with adrenergic α1 receptor is recorded as 87%.
As to `Cc1[nH]c2ccc(Cl)cc2c1C1=CCN(CCCCNS(=O)(=O)c2cccc3ccccc23)CC1` [Compound 366, N-[4-[4-(5-Chloro-2-methyl-1H-indol-3-yl)-3,6-dihydro-2H-pyridin-1-yl]butyl]-naphthalene-1-sulphonamide], the inhibition at 1 µM amounted to 34% in test [1]; 49% in test [2]; 53% in test [3]; 8% in test [4]; 81% at dopaminergic D3 receptor; 98% in test [5]. Besides, the inhibition at 1 µM on dopaminergic D2 receptor amounted to 54%. Moreover, the “α1 [%]” value in the test on adrenergic α1 receptor came to 8%.
Consider `Cc1[nH]c2ccc(Cl)cc2c1C1=CCN(CCCCNS(=O)(=O)c2cccc(O)c2)CC1` [Compound 369, N-[4-[4-(5-Chloro-2-methyl-1H-indol-3-yl)-3,6-dihydro-2H-pyridin-1-yl]butyl]-3-hydroxybenzenesulphonamide], for which the inhibition at 1 µM stood at 62% in test [1]; 79% in test [2]; 7% in test [3]; 29% in test [4]; 97% at dopaminergic D3 receptor; 99% in test [5]. Besides, on dopaminergic D2 receptor, the inhibition at 1 µM is 67%. Besides, the “α1 [%]” value with adrenergic α1 receptor is reported as 50%.
Take `O=S(=O)(NCCCCN1CCN(c2cccc3c2OCCO3)CC1)c1cccc2ccccc12` [Compound 385, N-[4-[4-(2,3-Dihydro-1,4-benzodioxin-5-yl)piperazin-1-yl]butyl]naphthalene-1-sulphonamide]: the inhibition at 1 µM in test [1] worked out at 103%; in test [2], 77%; in test [3], 99%; in test [4], 6%; at dopaminergic D3 receptor it was 89%; in test [5], 10%. The inhibition at 1 µM on dopaminergic D2 receptor stood at 75%. In the test with adrenergic α1 receptor, the “α1 [%]” value amounted to 96%.
As to `O=S(=O)(NCCCCN1CCN(c2cccc3c2OCCO3)CC1)c1ccc2ccccc2c1` [Compound 386, N-[4-[4-(2,3-Dihydro-1,4-benzodioxin-5-yl)piperazin-1-yl]butyl]naphthalene-2-sulphonamide], the inhibition at 1 µM in test [1] was 96%; in test [2] it was 65%; in test [3], 82%; in test [4] it was -5%; at dopaminergic D3 receptor it was 88%; in test [5] it was 1%. On dopaminergic D2 receptor, the inhibition at 1 µM turned out to be 70%. For the same molecule, the “α1 [%]” value in the test with adrenergic α1 receptor is recorded as 96%.

For the origin of these results see patent US8822517B2, “Arylosulfonamides for the treatment of CNS diseases” (Adamed SP. Z O.O., priority 2010, dated 2014).
